From US12655116B2, “Substituted isophthalic acid diamides” (Bayer Aktiengesellschaft, priority 2020, dated 2026)

Columns and labels:
ABUTH [1] = assay: Pre-emergence herbicidal action against ABUTH; format: in vivo, Abutilon theophrasti
In short: (§1)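 Sandy loam pots, seeds covered with soil, then surface-treated with WP or EC formulations at 600–800 l/ha water plus 0.2% wetting agent. Greenhouse, 3 weeks. Percent damage vs untreated controls.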

ALOMY [2] = assay: Pre-emergence herbicidal action against ALOMY; format: in vivo, Alopecurus myosuroides; settings: 80 g/ha, pre-emergence, scored visually after 3 weeks vs untreated controls (100% = plants have died, 0% = like control plants)
In short: as §1

AMARE [3] = assay: Pre-emergence herbicidal action against AMARE; format: in vivo, Amaranthus retroflexus
In short: as §1

AVEFA [4] = assay: Pre-emergence herbicidal action against AVEFA; format: in vivo, Avena fatua; settings: pre-emergence
In short: as §1

ECHCG [5] = assay: Pre-emergence herbicidal action against ECHCG; format: in vivo, Echinochloa crus-galli
In short: as §1

MATIN [6] = assay: Pre-emergence herbicidal action against MATIN; format: in vivo, Matricaria inodora
In short: as §1

PHBPU [7] = assay: Pre-emergence herbicidal action against PHBPU; format: in vivo, Pharbitis purpurea; settings: dosage 80 g/ha
In short: as §1

POLCO = assay: Pre-emergence herbicidal action against POLCO; format: in vivo, Polygonum convolvulus; settings: dosage 80 g/ha
In short: as §1

SETVI [8] = assay: Pre-emergence herbicidal action against SETVI; format: in vivo, Setaria viridis
In short: as §1

VERPE [9] = assay: Pre-emergence herbicidal action against VERPE; format: in vivo, Veronica persica; settings: dosage 80 g/ha
In short: as §1

VIOTR [10] = assay: Pre-emergence herbicidal action against VIOTR; format: in vivo, Viola tricolor
In short: as §1

ABUTH [11] = assay: Post-emergence herbicidal action against ABUTH; format: in vivo, Abutilon theophrasti; settings: visual assessment about 3 weeks after treatment vs untreated controls
In short: (§2)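 Herbicidal action is a visual percentage rating (0% = as untreated control, 100% = plants dead) made roughly 3 weeks after treatment. Plants were grown in sandy loam in the greenhouse and treated at the one-leaf stage, 2 to 3 weeks post-sowing. Treatment was a foliar spray of wettable-powder or emulsion-concentrate formulations at 600 to 800 l/ha water plus 0.2% wetting agent.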

ALOMY [12] = assay: Post-emergence herbicidal action against ALOMY; format: in vivo, Alopecurus myosuroides; settings: visual assessment about 3 weeks after treatment vs untreated controls
In short: as §2

AMARE [13] = assay: Post-emergence herbicidal action against AMARE; format: in vivo, Amaranthus retroflexus; settings: 20 g/ha, visual assessment about 3 weeks after treatment, 100% = plants have died, 0% = like control plants
In short: as §2

AVEFA [14] = assay: Post-emergence herbicidal action against AVEFA; format: in vivo, Avena fatua; settings: 20 g/ha, visual assessment about 3 weeks after treatment, 100% = plants have died, 0% = like control plants
In short: as §2

ECHCG [15] = assay: Post-emergence herbicidal action against ECHCG; format: in vivo, Echinochloa crus-galli
In short: as §2

MATIN [16] = assay: Post-emergence herbicidal action against MATIN; format: in vivo, Matricaria inodora
In short: as §2

PHBPU [17] = assay: Post-emergence herbicidal action against PHBPU; format: in vivo, Pharbitis purpurea
In short: as §2

SETVI [18] = assay: Post-emergence herbicidal action against SETVI; format: in vivo, Setaria viridis
In short: as §2

VERPE [19] = assay: Post-emergence herbicidal action against VERPE; format: in vivo, Veronica persica; settings: 20 g/ha
In short: as §2

VIOTR [20] = assay: Post-emergence herbicidal action against VIOTR; format: in vivo, Viola tricolor
In short: as §2

[21] = Tripleurospermum inodorum, 504 h, dosage 20 g/ha
[22] = 80 g/ha, scored visually after 3 weeks vs untreated controls (100% = plants have died, 0% = like control plants)

SMILES: CCn1nnnc1NC(=O)c1ccc(C(F)F)c(C(=O)NC(C)C)c1C [Example 2-345]
- pest or weed control at 80 g/ha (ABUTH [1]; Abutilon theophrasti, 504 h, 80 g/ha, scored visually after 3 weeks vs untreated controls (100% = plants have died, 0% = like control plants)): 100%
- pest or weed control at 20 g/ha (ABUTH [1]; Abutilon theophrasti, 504 h, dosage 20 g/ha, scored visually after 3 weeks vs untreated controls, 100% = plants have died, 0% = like control plants, read-out: Pre-emergence action against ABUTH (herbicidal activity in percent)): 90%
- pest or weed control at 80 g/ha (ALOMY [2]; Alopecurus myosuroides, 504 h): 80%
- pest or weed control at 20 g/ha (AMARE [3]; Amaranthus retroflexus, 504 h, 20 g/ha, scored visually after 3 weeks vs untreated controls, 100% = plants have died, 0% = like control plants): 100%
- pest or weed control at 80 g/ha (AMARE [3]; Amaranthus retroflexus, 504 h, 80 g/ha, scored visually after 3 weeks vs untreated controls, 100% = plants have died, 0% = like control plants): 100%
- pest or weed control at 80 g/ha (AVEFA [4]; Avena fatua, 504 h, 80 g/ha): 80%
- pest or weed control at 20 g/ha (AVEFA [4]; Avena fatua, 504 h, 20 g/ha, scored visually after 3 weeks, 100% = plants have died, 0% = like control plants): 80%
- pest or weed control at 80 g/ha (ECHCG [5]; Echinochloa crus-galli, 504 h, 80 g/ha): 90%
- pest or weed control at 20 g/ha (MATIN [6]; [21]): 100%
- pest or weed control at 80 g/ha (MATIN [6]; Tripleurospermum inodorum, 504 h, dosage 80 g/ha): 100%
- pest or weed control at 80 g/ha (PHBPU [7]; Ipomoea purpurea, 504 h): 80%
- pest or weed control at 80 g/ha (POLCO; Fallopia convolvulus, 504 h): 90%
- pest or weed control at 80 g/ha (SETVI [8]; Setaria viridis, 504 h, dosage 80 g/ha): 100%
- pest or weed control at 80 g/ha (VERPE [9]; Veronica persica, 504 h): 100%
- pest or weed control at 20 g/ha (VIOTR [10]; Viola tricolor, 504 h, dosage 20 g/ha): 80%
- pest or weed control at 80 g/ha (VIOTR [10]; Viola tricolor, 504 h, dosage 80 g/ha): 100%
- pest or weed control at 5 g/ha (ABUTH [11]; Abutilon theophrasti, 504 h, dosage 5 g/ha): 90%
- pest or weed control at 20 g/ha (ABUTH [11]; Abutilon theophrasti, 504 h, dosage 20 g/ha): 90%
- pest or weed control at 5 g/ha (ALOMY [12]; Alopecurus myosuroides, 504 h, dosage 5 g/ha): 80%
- pest or weed control at 20 g/ha (ALOMY [12]; Alopecurus myosuroides, 504 h, dosage 20 g/ha): 80%
- pest or weed control at 20 g/ha (AMARE [13]; Amaranthus retroflexus, 504 h): 100%
- pest or weed control at 20 g/ha (AVEFA [14]; Avena fatua, 504 h): 80%
- pest or weed control at 20 g/ha (ECHCG [15]; Echinochloa crus-galli, 504 h, dosage 20 g/ha): 80%
- pest or weed control at 5 g/ha (MATIN [16]; Tripleurospermum inodorum, 504 h, dosage 5 g/ha): 90%
- pest or weed control at 20 g/ha (MATIN [16]; [21]): 100%
- pest or weed control at 20 g/ha (PHBPU [17]; Ipomoea purpurea, 504 h, dosage 20 g/ha): 100%
- pest or weed control at 5 g/ha (SETVI [18]; Setaria viridis, 504 h, dosage 5 g/ha): 80%
- pest or weed control at 20 g/ha (SETVI [18]; Setaria viridis, 504 h, dosage 20 g/ha): 100%
- pest or weed control at 20 g/ha (VERPE [19]; Veronica persica, 504 h): 80%
- pest or weed control at 5 g/ha (VIOTR [20]; Viola tricolor, 504 h, 5 g/ha): 90%
- pest or weed control at 20 g/ha (VIOTR [20]; Viola tricolor, 504 h, 20 g/ha): 90%

SMILES: CSc1c(C(=O)Nc2nnnn2C)ccc(C(F)(F)F)c1C(=O)NCC(F)F [Example 1-86]
- Pre-emergence action against ABUTH (herbicidal activity) (ABUTH [1]; [22]): 100%
- Pre-emergence action against ABUTH (herbicidal activity in percent) (ABUTH [1]; dosage 20 g/ha, scored visually after 3 weeks vs untreated controls, 100% = plants have died, 0% = like control plants): 100%
- Pre-emergence action against ALOMY (herbicidal activity) (ALOMY [2]): 100%
- Pre-emergence action against AMARE in % (AMARE [3]; 20 g/ha, scored visually after 3 weeks vs untreated controls, 100% = plants have died, 0% = like control plants): 100%
- Pre-emergence action against AMARE in % (AMARE [3]; [22]): 100%
- Pre-emergence action against AVEFA in % (AVEFA [4]; 80 g/ha): 100%
- Pre-emergence action against ECHCG in % (ECHCG [5]; 20 g/ha): 90%
- Pre-emergence action against ECHCG in % (ECHCG [5]; 80 g/ha): 100%
- Pre-emergence action against MATIN in % (MATIN [6]; dosage 20 g/ha): 100%
- Pre-emergence action against MATIN in % (MATIN [6]; dosage 80 g/ha): 100%
- Pre-emergence action against PHBPU in % (PHBPU [7]): 80%
- Pre-emergence action against POLCO in % (POLCO): 80%
- Pre-emergence action against SETVI in % (SETVI [8]; dosage 20 g/ha): 80%
- Pre-emergence action against SETVI in % (SETVI [8]; dosage 80 g/ha): 100%
- Pre-emergence action against VERPE in % (VERPE [9]): 100%
- Pre-emergence action against VIOTR in % (VIOTR [10]; dosage 20 g/ha): 100%
- Pre-emergence action against VIOTR in % (VIOTR [10]; dosage 80 g/ha): 100%
- Post-emergence action against ABUTH in % (ABUTH [11]; dosage 5 g/ha): 100%
- Post-emergence action against ABUTH in % (ABUTH [11]; dosage 20 g/ha): 100%
- Post-emergence action against ALOMY in % (ALOMY [12]; dosage 20 g/ha): 100%
- Post-emergence action at 20 g/ha against AMARE in % (AMARE [13]): 100%
- Post-emergence action at 20 g/ha against AVEFA in % (AVEFA [14]): 100%
- Post-emergence action against ECHCG in % (ECHCG [15]; dosage 5 g/ha): 80%
- Post-emergence action against ECHCG in % (ECHCG [15]; dosage 20 g/ha): 100%
- Post-emergence action against MATIN in % (MATIN [16]; dosage 20 g/ha): 80%
- Post-emergence action against PHBPU in % (PHBPU [17]; dosage 5 g/ha): 80%
- Post-emergence action against PHBPU in % (PHBPU [17]; dosage 20 g/ha): 90%
- Post-emergence action against SETVI in % (SETVI [18]; dosage 20 g/ha): 80%
- Post-emergence action against VERPE in % (VERPE [19]): 90%
- Post-emergence action against VIOTR in % (VIOTR [20]; 5 g/ha): 90%
- Post-emergence action against VIOTR in % (VIOTR [20]; 20 g/ha): 100%
